The results in this text go back to patent publication US20230067159A1, “ROR-GAMMA-T INHIBITOR, PREPARATION METHOD THEREOF AND USE THEREOF” (priority 2020, published 2023).

Molecules are shown by their SMILES.

The IC50 is the concentration needed to halve the response being measured.

For this assay, the target named is T1, RORγ (Homo sapiens, UniProt P51449).
T1 construct: The concentration of B-RORγ LBD was 40 nM
T1 sequence (P51449 269-508 limits assumed): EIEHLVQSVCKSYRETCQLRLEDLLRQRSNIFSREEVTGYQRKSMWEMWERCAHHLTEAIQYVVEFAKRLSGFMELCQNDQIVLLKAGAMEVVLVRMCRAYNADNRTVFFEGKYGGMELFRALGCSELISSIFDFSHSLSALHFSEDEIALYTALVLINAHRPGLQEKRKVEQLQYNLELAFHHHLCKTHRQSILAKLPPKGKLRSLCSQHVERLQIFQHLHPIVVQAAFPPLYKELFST
The experiment in a line: Fluorescence resonance energy transfer (FRET) test, B-RORγ LBD / Biotin-SRC1. Format: biochemical. As for the experimental part: Biological Example 1 Fluorescence Resonance Energy Transfer (FRET) Test
(1) Preparation of RORγ Test Buffer and 10 mM of DTT
100 mL of 1× Basic test buffer (HEPES (pH 7.4), 100 mM NaCl, 0.01% BSA) was prepared, and 154.25 mg of DTT was added. The mixture was well mixed.
(2) Preparation of Compound with Gradient Concentration
a. Standard compound was prepared: Standard compound was diluted with 100% DMSO to 2.5 mM, then diluted 3-fold with 11 serial dilutions to a final concentration of […];
b. Test compound was prepared referring to the standard compound.
(3) Preparation of 1× Protein Solution Mixture
a. Preparation of the desired amount of 2× B-RORγ LBD/SA-APC protein mixture: The concentration of B-RORγ LBD was 40 nM, and the concentration of SA-APC was 20 nM. They were mixed by gently inversion, and incubated at room temperature for 15 minutes. Then 400 nM of biotin was added. The mixture was mixed by gently inversion, and incubated at room temperature for 10 minutes;
b. Preparation of the desired amount of 2× Biotin-SRC1/SA-eu protein mixture: The concentration of Bioin-SRC1 was 40 nM, and the concentration of SA-eu was 20 nM. They were mixed by gently inversion, and incubated at room temperature for 15 minutes. Then 200 nM of biotin was added. The mixture was mixed by gently inversion, and incubated at room temperature for 10 minutes;
c. The protein mixtures prepared in step a and step b were mixed at a ratio of 1:1, and incubated at room temperature for 5 minutes;
d. 25 μL of the mixture from step c was added to the 384-well plate containing the test compound;
e. The mixture was centrifuged at 1000 rpm for one minute;
f. The mixture was incubated for 1 hour at room temperature.
(4) Data Collection and Calculation
After incubation at room temperature for 1 hour, the fluorescence values at 665 nm and 615 nm were measured with an EnVision plate reader, and the inhibition rate was calculated.
Inhibition rate %)=[(X−Min)/(Max−Min)]×100%
X is the fluorescence value ratio of “665/615” of the test compound; Min is the average value of “665/615” of the DMSO blank control; Max is the average value of “665/615” of the 10 μM SRC.
With `CCS(=O)(=O)c1ccc([C@H](CCO)NC(=O)c2ccc(N3CC(Oc4ccc(OC(F)F)cc4)C[C@H]3COC(F)F)cc2)cc1` (stereo in doubt) [Example 114, 4-((2S,4S)-2-((difluoromethoxy)methyl)-4-(4-(difluoromethoxy)phenoxy)pyrrolidin-1-yl)-N—((S)-1-(4-(ethylsulfonyl)phenyl)-3-hydroxypropyl)benzamide], the half-maximal inhibitory concentration (IC50) was 2 nM.
The result for `CCS(=O)(=O)c1ccc([C@H](CCO)NC(=O)c2ccc(N3CC(Oc4ccc(OC(F)(F)F)cc4)C[C@H]3COC(F)(F)F)cc2)cc1` (stereo in doubt) [Example 118, N—((S)-1-(4-(ethylsulfonyl)phenyl)-3-hydroxypropyl)-4-((2S,4S)-2-((trifluoromethoxy)methyl)-4-(4-(trifluoromethoxy)phenoxy)pyrrolidin-1-yl)benzamide] reads 8 nM.
For the compound `CCS(=O)(=O)c1ccc(CC(=O)Nc2ccc(N3CCC(Cc4ccc(C(F)(F)F)cc4)C3)cc2)cc1` (stereo not shown) [Example 1, 2-(4-(Ethylsulfonyl)phenyl)-N-(4-(3-(4-(trifluoromethyl)benzyl)pyrrolidin-1-yl)phenyl) acetamide], the IC50 stood at 12 nM.
The figure for `CCS(=O)(=O)c1ccc(CNC(=O)c2ccc(N3CCC(Cc4ccc(C(F)(F)F)cc4)C3)cc2)cc1` (stereo not shown) [Example 2] is 14 nM; for `CCS(=O)(=O)c1ccc(CC(=O)Nc2ccc(C3CN(Cc4ccc(C(F)(F)F)cc4)CC3C)cc2)cc1` (stereo not shown) [Example 5, 2-(4-(Ethylsulfonyl)phenyl)-N-(4-(4-methyl-1-(4-(trifluoromethyl)benzyl)pyrrolidin-3-yl)phenyl)acetamide] it is 47 nM; for `CCS(=O)(=O)c1ccc([C@H](CO)NC(=O)c2ccc(N3CCC(Cc4ccc(C(F)(F)F)cc4)C3)cc2)cc1` (stereo partly drawn) [Example 6, N—((R)-1-(4-(ethylsulfonyl)phenyl)-2-hydroxyethyl)-4-(3-(4-(trifluoromethyl)benzyl)pyrrolidin-1-yl)benzamide] it is 9 nM.
The result for `CCS(=O)(=O)c1ccc(CNC(=O)c2ccc(N3CC(Cc4ccc(C(F)(F)F)cc4)C[C@H]3COC)cc2)cc1` (stereo partly drawn) [Example 7, N-(4-(ethylsulfonyl)benzyl)-4-((2S)-2-(methoxymethyl)-4-(4-(trifluoromethyl)benzyl)pyrrolidin-1-yl)benzamide] reads 8.5 nM; that for `CCS(=O)(=O)c1ccc(CNC(=O)c2ccc(N3CCC(Oc4ccc(C(F)(F)F)cc4)C3)cc2)cc1` (stereo not shown) [Example 9, N-(4-(ethylsulfonyl)benzyl)-4-(3-(4-(trifluoromethyl)phenoxy)pyrrolidin-1-yl)benzamide], 11.9 nM.
As for `CCS(=O)(=O)c1ccc(CNC(=O)c2ccc(N3CCC(N(C)c4ccc(C(F)(F)F)cc4)C3)cc2)cc1` (stereo not shown) [Example 10, N-(4-(ethylsulfonyl)benzyl)-4-(3-(methyl(4-(trifluoromethyl)phenyl)amino)pyrrolidin-1-yl) benzamide], inhibition was half-maximal at 23 nM (IC50).
With `CCS(=O)(=O)c1ccc(CNC(=O)c2ccc(N3CCC(Nc4ccc(C(F)(F)F)cc4)C3)cc2)cc1` (stereo not shown) [Example 11, N-(4-(ethylsulfonyl)benzyl)-4-(3-((4-(trifluoromethyl)phenyl)amino)pyrrolidin-1-yl)benzamide], half-maximal inhibition (IC50) required 33.8 nM.
In the case of `CCS(=O)(=O)c1ccc([C@H](CO)NC(=O)c2ccc(N3CCC(Oc4ccc(C(F)(F)F)cc4)C3)cc2)cc1` (stereo partly drawn) [Example 12, N—((R)-1-(4-(ethylsulfonyl)phenyl)-2-hydroxyethyl)-4-(3-(4-(trifluoromethyl)phenoxy)pyrrolidin-1-yl)benzamide], half-maximal inhibition (IC50) was put at 24 nM.
The result for `CCS(=O)(=O)c1ccc([C@H](CO)NC(=O)c2ccc(N3CC[C@H](Oc4ccc(C(F)(F)F)cc4)C3)cc2)cc1` [Example 14, N—((R)-1-(4-(ethylsulfonyl)phenyl)-2-hydroxyethyl)-4-((S)-3-(4-(trifluoromethyl)phenoxy)pyrrolidin-1-yl)benzamide] reads 20 nM.
The compound `CCOC[C@@H]1CC(Oc2ccc(C(F)(F)F)cc2)CN1c1ccc(C(=O)NCc2ccc(S(=O)(=O)CC)cc2)cc1` (stereo partly shown) [Example 19] showed an IC50 of 18.6 nM.
For the compound `CCOC[C@@H]1CC(Oc2ccc(C(F)(F)F)cc2)CN1c1ccc(C(=O)N[C@@H](CO)c2ccc(S(=O)(=O)CC)cc2)cc1` (stereo partly shown) [Example 20], it took 14.1 nM to reach half-maximal inhibition (IC50).
The result for `CCS(=O)(=O)c1ccc([C@H](CO)NC(=O)c2ccc(N3C[C@H](Oc4ccc(C(F)(F)F)cc4)C[C@H]3CF)cc2)cc1` [Example 24, N—((R)-1-(4-(ethylsulfonyl)phenyl)-2-hydroxyethyl)-4-((2S,4R)-2-(fluoromethyl)-4-(4-(trifluoromethyl)phenoxy)pyrrolidin-1-yl)benzamide] reads 32.8 nM; that for `CCS(=O)(=O)c1ccc(CNC(=O)c2ccc(N3C[C@H](Oc4ccc(C(F)(F)F)cc4)C[C@H]3COC)cc2)cc1` [Example 25, N-(4-(ethylsulfonyl)benzyl)-4-((2S,4R)-2-(methoxymethyl)-4-(4-(trifluoromethyl)phenoxy)pyrrolidin-1-yl)benzamide], 20 nM.
Take `CCS(=O)(=O)c1ccc([C@H](CO)NC(=O)c2ccc(N3C[C@H](Oc4ccc(C(F)(F)F)cc4)C[C@H]3COC)cc2)cc1` [Example 26, N—((R)-1-(4-(ethylsulfonyl)phenyl)-2-hydroxyethyl)-4-((2S,4R)-2-(methoxymethyl)-4-(4-(trifluoromethyl)phenoxy)pyrrolidin-1-yl)benzamide]: 10 nM corresponded to half-maximal inhibition (IC50).
The figure for `CCCOC[C@@H]1C[C@@H](Oc2ccc(C(F)(F)F)cc2)CN1c1ccc(C(=O)N[C@@H](CO)c2ccc(S(=O)(=O)CC)cc2)cc1` [Example 27, N—((R)-1-(4-(ethylsulfonyl)phenyl)-2-hydroxyethyl)-4-((2S,4R)-2-(propoxymethyl)-4-(4-(trifluoromethyl)phenoxy)pyrrolidin-1-yl)benzamide] is 20.8 nM.
The result for `CCCCOC[C@@H]1C[C@@H](Oc2ccc(C(F)(F)F)cc2)CN1c1ccc(C(=O)N[C@@H](CO)c2ccc(S(=O)(=O)CC)cc2)cc1` [Example 28] reads 13.3 nM; that for `CCS(=O)(=O)c1ccc([C@H](CO)NC(=O)c2ccc(N3C[C@H](Oc4ccc(C(F)(F)F)cc4)C[C@H]3COCCF)cc2)cc1` [Example 29, N—((R)-1-(4-(ethylsulfonyl)phenyl)-2-hydroxyethyl)-4-((2S,4R)-2-((2-fluoroethoxy)methyl)-4-(4-(trifluoromethyl)phenoxy)pyrrolidin-1-yl)benzamide], 10.4 nM; that for `CCS(=O)(=O)c1ccc([C@H](CO)NC(=O)c2ccc(N3C[C@H](Oc4ccc(C(F)(F)F)cc4)C[C@H]3COCC(F)(F)F)cc2)cc1` [Example 30, N—((R)-1-(4-(ethylsulfonyl)phenyl)-2-hydroxyethyl)-4-((2S,4R)-2-((2,2,2-trifluoroethoxy)methyl)-4-(4-(trifluoromethyl)phenoxy)pyrrolidin-1-yl)benzamide], 17.1 nM.
The result for `CCS(=O)(=O)c1ccc([C@H](CO)NC(=O)c2ccc(N3C[C@H](Oc4ccc(C(F)(F)F)cc4)C[C@H]3COCC3CC3)cc2)cc1` [Example 31] reads 17 nM.
With `CCS(=O)(=O)c1ccc([C@H](CO)NC(=O)c2ccc(N3C[C@H](Oc4ccc(C(F)(F)F)cc4)C[C@H]3COCCC#N)cc2)cc1` [Example 32], the IC50 was 19 nM.
The figure for `CCS(=O)(=O)c1ccc([C@H](CO)NC(=O)c2ccc(N3C[C@H](Oc4ccc(C(F)(F)F)cc4)C[C@H]3CO[C@H]3CCOC3)cc2)cc1` [Example 33, N—((R)-1-(4-(ethylsulfonyl)phenyl)-2-hydroxyethyl)-4-((2S,4R)-2-((((S)-tetrahydrofuran-3-yl)oxy)methyl)-4-(4-(trifluoromethyl)phenoxy)pyrrolidin-1-yl)benzamide] is 132 nM; for `CCS(=O)(=O)c1ccc([C@H](CO)NC(=O)c2ccc(N3C[C@H](Oc4ccc(C(F)(F)F)cc4)C[C@H]3COC3CCOCC3)cc2)cc1` [Example 34, N—((R)-1-(4-(ethylsulfonyl)phenyl)-2-hydroxyethyl)-4-((2S,4R)-2-(((tetrahydro-2H-pyran-4-yl)oxy)methyl)-4-(4-(trifluoromethyl)phenoxy)pyrrolidin-1-yl)benzamide] it is 133 nM.
